Laboratory results reported in patent US8470964B2, “Peptides derived from NCAM (FGLs)” (Enkam Pharmaceuticals A/S, priority 2007, dated 2013).

System: (25-35) β-amyloid peptide fragment induced cognitive deficits model in rats
Test: (25-35) β-amyloid induced cognitive deficits, intranasal administration, SRT
Assay type: in vivo, rat
Settings: intranasal, 15 daily doses from day 7 to 21, test 24 hrs after the last administration
Text: FIG. 9. Effects of intranasal administration of FGLs on the β-amyloid neurotoxicity induced deficit on performance in the Social Recognition Test. Rats received an intranasal administration of FGLs at the stated doses or vehicle daily at days 7 to 21 after i.c.v. administration of the (25-35) β-amyloid (A-β) fragment. 8-10 animals per group. Results are expressed as Means and SEM of Recognition Ratio and analyzed by one-sample t-test: **p<0.05.
In this study, the (25-35) β-amyloid peptide fragment induced cognitive deficits model in rats was used to investigate the dose-response (0.08, 0.32 or 1.28 mg/kg) effect of FGLs administered intranasally daily for 15 doses from day 7 to day 21 post β-amyloid peptide i.c.v. injection. The social memory performance was evaluated using the SRT, 22 days after the β-amyloid injection. A statistically significant impairment of short-term memory was observed as a consequence of the (25-35) β-amyloid neurotoxicity in the rats receiving the (25-35) β-amyloid fragment plus vehicle.

EVYVVAENQQGKSKA [FGL, reference compound]
minimum effective dose, impaired short-term memory (SRT): 1.28 mg/kg
